For assay [1] the following is noted: compared to placebo; cited from earlier work.
A further assay deals with IL-1RA, IL-1β. The conditions noted are these: experimentally; cited from earlier work.
The subject of the next assay is patients with AIED. As to the kind of experiment: Prednisone treatment of AIED patients with sudden hearing decline, pre/post-treatment audiograms. The class given is in vivo, human. The conditions noted are these: for AVG Improve: 60 mg prednisone daily 7 days then taper. As for the experimental part: FIG. 5A. 10 patients with presumptive AIED and sudden declines in hearing were enrolled, blood samples were taken and then the patients were treated with 60 mg prednisone/day×7 days and then tapered. Post-treatment audiograms were obtained between 7-14 days later. Improvement (Δ) was measured as the average of 500, 1, 2, 4 & 8 kHz. […] The patient that improved 13.3 dB represented a patient that returned to normal hearing thresholds. PBMC were isolated, divided and cultured for 16 hours with either 0 μg/ml or increasing concentrations of dexamethasone (8, 20, 40 or 80 μg/ml). Fold changes in levels of mIL-1RII by Q-RT-PCR after in vitro challenge with dexamethasone (expressed as fold change over baseline) predicted steroid responsiveness in AIED. In data on 7 subjects, the fold-increase was log-transformed in order to better meet the assumptions of a normal distribution with equal variance.
Prospectively Enrolled, Steroid Treated Subjects. Ten patients with AIED who had not undergone cochlear implantation were studied in a separate IRB approved protocol. […] The responders were defined as a 10 dB or greater average improvement at 250, 500, 1000, 2000, 4000 and 8000 Hz. […] Furthermore, SNHL of greater than 30 dB at one or more frequencies in both ears with evidence of active deterioration (elevated threshold) in at least one ear of 15 dB at one frequency (excluding 250 or 8 kHz as a sole indicator), or 10 dB at 2+ frequencies developing in >3 days but <90 days (Niparko et al. 2005, Yeom et al. 2003). If the hearing loss evolved in less than 3 days, prior similar hearing declines must have occurred or the patient must have a systemic autoimmune disorder AND the patient must meet the audiology criteria outlined above. All patients with retrocochlear (vestibular schwannoma or other internal auditory canal s) pathology), patients who received prednisone or other immunosuppressive therapy within 3 months, or patients with vestibular symptoms coinciding with periods of hearing fluctuation were all excluded from this study. All patients received a minimum of 60 mg of prednisone daily for 7 days with a variable taper thereafter.
60% of patients studied by the AIED study group were steroid responsive (Niparko et al. 2005). In the present study, in vitro PBMC membrane-bound IL-IRII (mIL-1RII) mRNA expression in response to dexamethasone stimulation was compared to basal mIL-1RII expression in cultures of PBMCs collected prior to clinical steroid treatment. In addition, pre-treatment mIL-1RII expression was compared to post-treatment hearing recovery. Furthermore, pre- and post-treatment mIL-1RII expression were compared in a subset of clinical responders and non-responders. […] All responders returned to their prior baseline hearing thresholds at the end of the corticosteroid treatment. Non-responders were defined as less than 5 dB improvement at the same frequencies or further decline of pure tone thresholds. […] Of note, the dramatic difference in fold change of the corticosteroid responders is inversely proportional to basal mIL-1RII expression in PBMC (45 cycles, S.D. 0.0 in replicate samples) in an unstimulated condition, compared to corticosteroid non-responders (28.48 cycles, S.D.±3.34) (FIG. 5B, p<0.0001). In all patient samples, the unstimulated condition is the average of 2 independent cultured PBMC samples. Furthermore, post-steroid therapy mIL-1RII expression was determined in a subset of patients.

The test system of the next assay is mIL-1RII. As to the kind of experiment: Pre- and post-steroid therapy mIL-1RII expression in PBMC by Q-RT-PCR. The assay is classed as in vivo, human. The conditions noted are these: subset. As for the experimental part:
FIG. 5B. Pre- and post-treatment mIL-1RII levels in a subset of clinical responders and non-responders. Responders have essentially zero basal mIL-1RII expression, compared with non-responders that have substantially higher basal levels.
Q-RT-PCR. Quantitative Real Time RT-PCR (Q-RT-PCR) was performed on PBMC from patients using TaqMan chemistry. The relative abundance of IL1R2 mRNA for 2 membrane bound (mIL-1RII) and the soluble (sIL-1RII) coding regions associated with the 2 Affymetrix probes sets 211372 (sIL-1RII) and 205403 (mIL-1RID compared to β-actin was determined using the Eurogentec RTqPCR mastermix (Eurogentec, Belgium) and ABI PRISM 7700 Sequence Detection System. Membrane bound IL-1RII, as reflected by Affymetrix probe set 205403 was detected by primers nt 1239-1258, 1295-1314, and taqman probe 1271-1278, whereas the shorter soluble form (sIL-1RII) reflected by the Affymetrix probe 211372 and primers nt 790-830-849, and taqman probe 820-827. […] Data was analyzed using Sequence Detection System software version 1.9.1. Results were expressed as Ct (Threshold cycle) values, which is inversely proportional to the starting template copy number. Relative abundance of IL1R2 in […] cells was calculated compared to untreated control samples using delta delta Ct method (User Bulletin #2, Applied Biosystems Inc). […]

The next assay has as its system TNF-α. To be noted: animal studies, inner ear; cited from earlier work.

Values joined by “and” are separate entries in the source; they are usually repeats but may differ in a detail not shown here. Equal values may be shown once.

On to `CN(Cc1cnc2nc(N)nc(N)c2n1)c1ccc(C(=O)N[C@@H](CCC(=O)O)C(=O)O)cc1` [methotrexate], for which, in assay [1], the maintenance of hearing entry was “could not maintain hearing”. In the assay on IL-1RA, IL-1β, the IL-1RA release entry is “stimulates IL-1RA release” and the IL-1β synthesis result is on record as “inhibits IL-1β synthesis”.

Consider `C[C@]12C=CC(=O)C=C1CC[C@@H]1[C@@H]2C(=O)C[C@@]2(C)[C@H]1CC[C@]2(O)C(=O)CO` [prednisone], for which the “hearing outcome of responders” value in the assay with patients with AIED (Responders (R), post-treatment audiograms 7-14 days later) is given as “returned to prior baseline hearing”. The “AVG Improve” value was 13.3 dB and 13 dB in the assay with patients with AIED (patient 39WM (R3)); 0 dB with patients with AIED (patient 42 (NR2)); 1 dB in the assay on patients with AIED (patient 45WM (NR 5), (NS)); 33 dB in the assay on patients with AIED (patient 54 (R2)); 38 dB in the assay on patients with AIED (patient 56 (R1)); 0 dB in the assay with patients with AIED (patient 56WM (NR1)). The “AVG Improve” value turned out to be 0 dB in the assay on patients with AIED (patient 57 (NR4)); 4 dB in the assay on patients with AIED (patient 60WF (NR7), (NS)); 0 dB with patients with AIED (patient 61HF (NR3)); 0dB in the assay with patients with AIED (patient 62 (NR6)). Also, the “mIL-1RII expression detected post-treatment” value in the assay with mIL-1RII (clinical non-responders, pre-treatment 30 cycles) came to 27 cycles; in the assay on mIL-1RII (clinical responders, pre-treatment no expression at 45 cycles) it was 30 cycles.

Etanercept: the “TNF-α release after administration of antigen” value in the assay with TNF-α is reported as “can be reversed”.

The values are drawn from patent publication US20100069343A1, “Methods of predicting steroid responsiveness with Il-1RII” (priority 2008, published 2010).
